Reference: patent US20260102387A1, “IMMUNOSUPPRESSIVE COMPOUNDS” (UNIVERSITÄT BASEL, priority 2022, published 2026)
Read-outs that look alike come from different tables or passages of the source.

What was measured:
[1] = test system: coronin 1 promoter; assay: Fluorescence-based screening assay: coronin 1 promoter driven GFP in RBL cells (microplate reader / microscopy); assay type: cell-based; conditions: RBL; 5 μg/ml, 48 h, microplate reader, DMSO = 100; read-out: GFP values (%)
Method: The murine coronin 1 promoter sequences of SEQ ID NO: 1-6 were each cloned into a plasmid lacking a promoter (promoterless) but containing a destabilized Green Fluorescence Protein (GFP) cassette. Rat Basophil Leukemia (RBL) cells were transfected with the plasmids, stable GFP expressing cells were enriched, incubated with various compounds and assessed for coronin 1 promoter inhibition by assessing green fluorescence values (FIG. 2).
The plasmids were independently transfected into immune cells (Rat basophil Leukemia, RBL cells) to generate green and red fluorescent RBL cells that were subsequently enriched by means of flow cytometry. These cells were then mixed in equal ratio (1:1) and incubated in a 96 well plate at 100,000 cells/well in a volume of 200 μl of phenol red free RPMI supplemented with 8% fetal calf serum, L-glutamate and antibiotics (penicillin, […]) from available chemical libraries. At defined time points (8 h, 24 h and 48 h), the GFP and RFP fluorescence was measured using a 96 well microplate reader (Synergy, BioTek Instruments). […] Selected compounds show different levels of modulation of coronin 1 promoter driven GFP and CMV promoter driven RFP fluorescence. GFP and RFP fluorescence were analyzed with a microplate reader upon incubation with the top coronin 1 promoter inhibiting compounds. Shown are percentage of GFP reduction (left column) and percentage of RFP reduction (right column) for the compounds at 5 μg/ml concentration at 48 h. Cycloheximide (CHX) serves as positive control whereas media and DMSO serve as negative controls. […] Cells were imaged using a fluorescence microscope to validate fluorescence inhibition (FIG. 3A) and as well assess morphology and viability (in addition to GFP down regulation confirmation). In addition, quantitative Polymerase Chain Reaction (qPCR) for coronin 1 mRNA transcripts reveal reduction with compound 11 (FIG. 3B). The primers used for the qPCR on RBL cells are listed below as follows;

[2] = test system: early cytomegalovirus promoter; assay: Screening assay control: CMV promoter driven RFP in RBL cells (microplate reader); assay type: cell-based; conditions: 5 μg/ml, 48 h, microplate reader, DMSO = 100, read-out: RFP values (%)
Method: As an unrelated promoter, the early cytomegaloviral promoter element was cloned into a promoterless Red Fluorescence Protein (RFP) expression plasmid. Rat Basophil Leukemia (RBL) cells were transfected with the plasmid, stable RFP expressing cells enriched, incubated with various compounds and were assessed for red fluorescence values. Analyzing the inhibition of an unrelated promoter (in this case, early cytomegalovirus promoter) that drove Red Fluorescence Protein (RFP) expression assessed non-specificity of the compound under analysis.
The plasmids were independently transfected into immune cells (Rat basophil Leukemia, RBL cells) to generate green and red fluorescent RBL cells that were subsequently enriched by means of flow cytometry. These cells were then mixed in equal ratio (1:1) and incubated in a 96 well plate at 100,000 cells/well in a volume of 200 μl of phenol red free RPMI supplemented with 8% fetal calf serum, L-glutamate and antibiotics (penicillin, streptomycin) and various compounds (3 and 5 μg/ml concentrations) from available chemical libraries. At defined time points (8 h, 24 h and 48 h), the GFP and RFP fluorescence was measured using a 96 well microplate reader (Synergy, BioTek Instruments). […] Selected compounds show different levels of modulation of coronin 1 promoter driven GFP and CMV promoter driven RFP fluorescence. GFP and RFP fluorescence were analyzed with a microplate reader upon incubation with the top coronin 1 promoter inhibiting compounds. Shown are percentage of GFP reduction (left column) and percentage of RFP reduction (right column) for the compounds at 5 μg/ml concentration at 48 h. Cycloheximide (CHX) serves as positive control whereas media and DMSO serve as negative controls. […] Cells were imaged using a fluorescence microscope to validate fluorescence inhibition (FIG. 3A) and as well assess morphology and viability (in addition to GFP down regulation confirmation). In addition, quantitative Polymerase Chain Reaction (qPCR) for coronin 1 mRNA transcripts reveal reduction with compound 11 (FIG. 3B). The primers used for the qPCR on RBL cells are listed below as follows;

[3] = test system: RBL cells; assay: Cell viability by live-dead staining (cytotoxicity), flow cytometry; assay type: cell-based, Rat; conditions: cell viability via live/dead staining, 48-65 h, read-out: EC50 Toxicity
Method: (§1) RBL cells expressing GFP under coronin 1 promoter and optionally with RBL cells expressing RFP under CMV promoter were mixed in equal numbers and incubated with the compounds at indicated concentrations for 48-65 h and analyzed by flow cytometry for alteration in coronin 1 promoter (GFP fluorescence), CMV promoter (RFP fluorescence) values. In addition, the cells were labelled with live-dead marker for assessing cell viability status by flow cytometry. Cycloheximide (CHX) serves as positive control and DMSO serves as negative controls. Effective Concentration (EC50) values for coronin 1 promoter inhibition via GFP fluorescence analysis, non-specific promoter inhibition via CMV promoter driven-RFP fluorescence analysis and cell viability via live/dead staining as a measure for toxicity in flow cytometry for compounds (10-22 and 50a-65a) are shown in Table 6 and Table 7. Based on the EC50 analysis of the inhibition of coronin 1 promoter driven GFP fluorescence the (4S,7R)-configurated eutomers were identified (Structures FIG. 9A-C). This is exemplified for compounds containing two stereocenters by eutomers 11c and 13a. […] Subsequent EC50 evaluations (Table 7) were performed with compound 13a as standard for relative potency normalized to a value of 1.00 (relative potency calculated as [EC50 GFP inhibition 13a]/[EC50 GFP inhibition compound of interest]).

[4] = test system: coronin 1 promoter; assay: EC50 analysis for coronin 1 promoter driven GFP inhibition by flow cytometry in RBL cells; assay type: cell-based; conditions: RBL cells, 48-65 h, flow cytometry
Method: RBL cells that had been incubated with the indicated calcium channel blockers (amlodipine (3.125 μM) and verapamil (8 μM) concentrations for 48 h were analyzed by flow cytometry for any alteration in coronin 1 promoter driven GFP fluorescence. The results reveal no effect of calcium channel blockers on coronin 1 promoter activity (FIG. 4).
as §1

Row | Compound | EC50 ([4]; RBL) [nM] | EC50 ([3]; Rattus norvegicus, RBL) [nM] | other results
1 | COC(=O)C1=C(C)NC2=C(C(=O)CC(c3ccc(OC)cc3)C2)C1c1cccc(O)c1 (stereo not drawn) [Comp. 8, methyl-4-(3-hydroxyphenyl)-7-(4-methoxyphenyl)-2-methyl-5-oxo-1,4,5,6,7,8-hexahydro-3-quinolinecarboxylate] | – | – | activity at 5 µg/mL [1]: 87%; activity at 5 µg/mL [2]: 97%
2 | CCSCCOC(=O)C1=C(C)NC2=C(C(=O)CC(c3ccccc3OC)C2)C1c1ccsc1 (stereo not drawn) [Comp. 3, 2-(ethylthio)ethyl-7-(2-methoxyphenyl)-2-methyl-5-oxo-4-(3-thienyl)-1,4,5,6,7,8-hexahydro-3-quinolinecarboxylate] | – | – | activity at 5 µg/mL [1]: 63%; activity at 5 µg/mL [2]: 80%
3 | COC(=O)C1=C(C)NC2=C(C(=O)CC(c3ccccc3)C2)C1c1cccc(O)c1 (stereo not drawn) [Comp. 4, methyl 4-(3-hydroxyphenyl)-2-methyl-5-oxo-7-phenyl-1,4,5,6,7,8-hexahydroquinoline-3-carboxylate] | – | – | activity at 5 µg/mL [1]: 60%; activity at 5 µg/mL [2]: 85%
4 | COC(=O)C1=C(C)NC2=C(C(=O)CC(c3ccccc3OC)C2)C1c1ccccc1 (stereo not drawn) [compound 14, methyl 7-(2-methoxyphenyl)-2-methyl-5-oxo-4-phenyl-1,4,5,6,7,8-hexahydroquinoline-3-carboxylate] | 250 | > 6000 | –
5 | COC(=O)C1=C(C)NC2=C(C(=O)CC(c3ccccc3OC)C2)C1c1ccc(F)cc1 (stereo not drawn) [Comp. 2, methyl-4-(4-fluorophenyl)-7-(2-methoxyphenyl)-2-methyl-5-oxo-1,4,5,6,7,8-hexahydro-3-quinolinecarboxylate] | – | – | activity at 5 µg/mL [1]: 52%; activity at 5 µg/mL [2]: 81%
6 | COCCCCOC(=O)C1=C(C)NC2=C(C(=O)CC(c3ccccc3OC)C2)C1c1cccc(O)c1 (stereo not drawn) [compound 17, 4-methoxybutyl 4-(3-hydroxyphenyl)-7-(2-methoxyphenyl)-2-methyl-5-oxo-1,4,5,6,7,8-hexahydroquinoline-3-carboxylate] | 100 | > 5000 | –
7 | COC(=O)C1=C(C)NC2=C(C(=O)CC(c3ccccc3OC)C2)C1c1cccc(OC)c1 (stereo not drawn) [compound 15, methyl 7-(2-methoxyphenyl)-4-(3-methoxyphenyl)-2-methyl-5-oxo-1,4,5,6,7,8-hexahydroquinoline-3-carboxylate] | 1200 | > 15000 | –
8 | COc1ccccc1C1CC(=O)C2=C(C1)NC(C)=C(C(=O)OCC1CC(C)(C)OC(C)(C)C1)C2c1cccc(O)c1 (stereo not drawn) [compound 19, (2,2,6,6-tetramethyltetrahydro-2H-pyran-4-yl)methyl 4-(3-hydroxyphenyl)-7-(2-methoxyphenyl)-2-methyl-5-oxo-1,4,5,6,7,8-hexahydroquinoline-3-carboxylate] | 160 | > 2500 | –
9 | COC(=O)C1=C(C)NC2=C(C(=O)C[C@H](c3ccccc3OC)C2)[C@@H]1c1cccc(O)c1 (stereo in doubt) [11a, methyl-4-(3-hydroxyphenyl)-7-(2-methoxyphenyl)-2-methyl-5-oxo-1,4,5,6,7,8-hexahydro-3-quinolinecarboxylate] | – | > 9000 | EC50 [4]: 500 nM
10 | COc1ccccc1C1CC(=O)C2=C(C1)NC(C)=C(C(=O)OC(C)(C)C)C2c1cccc(O)c1 (stereo not drawn) [compound 21, tert-butyl 4-(3-hydroxyphenyl)-7-(2-methoxyphenyl)-2-methyl-5-oxo-1,4,5,6,7,8-hexahydroquinoline-3-carboxylate] | 280 | > 2500 | –
11 | COc1ccccc1C1CC(=O)C2=C(C1)NC(C)=C(C(=O)OC1COC1)C2c1cccc(O)c1 (stereo not drawn) [compound 20, oxetan-3-yl 4-(3-hydroxyphenyl)-7-(2-methoxyphenyl)-2-methyl-5-oxo-1,4,5,6,7,8-hexahydroquinoline-3-carboxylate] | 500 | > 2500 | –
12 | COC(=O)C1=C(C)NC2=C(C(=O)C[C@H](c3ccccc3OC)C2)[C@@H]1c1cccc(O)c1 [11c, methyl (4S, 7R)-4-(3-hydroxyphenyl)-7-(2-methoxyphenyl)-2-methyl-5-oxo-1,4,5,6,7,8-hexahydro-3-quinolinecarboxylate] | – | – | EC50 [3]: > 9000 nM; EC50 [4]: 175 nM
13 | COC(=O)C1=C(C)NC2=C(C(=O)CC(c3ccccc3OC)C2)C1c1ccccc1O (stereo not drawn) [compound 16, methyl 4-(2-hydroxyphenyl)-7-(2-methoxyphenyl)-2-methyl-5-oxo-1,4,5,6,7,8-hexahydroquinoline-3-carboxylate] | 900 | > 7500 | –

More lines, main results first:

Row | EC50 ([4]; RBL) [nM] | Compound | EC50 ([3]; Rattus norvegicus, RBL) [nM] | other results
14 | > 30000 | COc1ccccc1[C@H]1CC(=O)C2=C(C1)NC(C)=C(C(=O)OCC1CCCO1)[C@@H]2c1cccc(O)c1 (stereo in doubt) [12b, tetrahydro-2-furanylmethyl-4-(3-hydroxyphenyl)-7-(2-methoxyphenyl)-2-methyl-5-oxo-1,4,5,6,7,8-hexahydro-3-quinolinecarboxylate] | > 30000 | –
15 | 200 | COc1ccccc1[C@H]1CC(=O)C2=C(C1)NC(C)=C(C(=O)OCC1CCCO1)[C@H]2c1cccc(O)c1 (stereo in doubt) [12a, tetrahydro-2-furanylmethyl-4-(3-hydroxyphenyl)-7-(2-methoxyphenyl)-2-methyl-5-oxo-1,4,5,6,7,8-hexahydro-3-quinolinecarboxylate] | > 30000 | –
16 | 2000 | COC(=O)C1=C(C)NC2=C(C(=O)C[C@@H](c3ccccc3OC)C2)[C@H]1c1cccc(O)c1 [11d, methyl-4-(3-hydroxyphenyl)-7-(2-methoxyphenyl)-2-methyl-5-oxo-1,4,5,6,7,8-hexahydro-3-quinolinecarboxylate] | > 18000 | –
17 | 200 | COc1ccccc1[C@H]1CC(=O)C2=C(C1)NC(C)=C(C(=O)OC[C@@H]1CCCO1)[C@H]2c1cccc(O)c1 (racemic) [12c, tetrahydro-2-furanylmethyl-4-(3-hydroxyphenyl)-7-(2-methoxyphenyl)-2-methyl-5-oxo-1,4,5,6,7,8-hexahydro-3-quinolinecarboxylate] | > 4000 | –
18 | > 36000 | COC(=O)C1=C(C)NC2=C(C(=O)C[C@H](c3ccccc3OC)C2)[C@H]1c1cccc(O)c1 (stereo in doubt) [11b, methyl-4-(3-hydroxyphenyl)-7-(2-methoxyphenyl)-2-methyl-5-oxo-1,4,5,6,7,8-hexahydro-3-quinolinecarboxylate] | > 36000 | –
